Activity calls are given as the source filed them.
How the values were obtained:
[1] = Inhibition of JAK-mediated IL6-induced Stat1 phosphorylation in BALB/c mouse B cells by Phospho-Flow cytometry; format: cell-based
[2] = biological target: T1, Janus Kinase (JAK) (Homo sapiens) (UniProt P52333+P23458+O60674+P29597); test: Inhibition of JAK-mediated interferon-gamma/anisomycin-induced Stat1 phosphorylation in human U937 cells by Phospho-Flow cytometry; format: cell-based; conditions: U-937
[3] = Inhibition of JAK-mediated IL10-induced Stat3 phosphorylation in BALB/c mouse B cells by Phospho-Flow cytometry; format: cell-based
MAP kinase p38 = MAP kinase p38 (Homo sapiens, UniProt O15264+Q15759+Q16539+P53778); test: Inhibition of anisomycin-induced p38 phosphorylation in human U937 cells by Phospho-Flow cytometry at 20 uM; format: cell-based; conditions: U-937
[4] = biological target: T1, Janus Kinase (JAK) (Homo sapiens); test: Inhibition of JAK-mediated GM-CSF-induced Stat5 phosphorylation in human U937 cells by Phospho-Flow cytometry at 20 uM; format: cell-based; conditions: U-937
[5] = biological target: T1, Janus Kinase (JAK) (Homo sapiens); test: Inhibition of JAK-mediated interferon-gamma-induced Stat1 phosphorylation in human U937 cells by Phospho-Flow cytometry at 20 uM; format: cell-based; conditions: U-937
[6] = Inhibition of JAK-mediated IL6-induced Stat3 phosphorylation in BALB/c mouse CD8+ T cells by Phospho-Flow cytometry; format: cell-based; conditions: T-cell
[7] = Inhibition of JAK-mediated IL6-induced Stat3 phosphorylation in BALB/c mouse CD11b-int macrophages by Phospho-Flow cytometry
[8] = Inhibition of JAK-mediated IL4-induced Stat5 phosphorylation in BALB/c mouse CD4+ T cells by Phospho-Flow cytometry; format: cell-based; conditions: T-cell
[9] = Inhibition of JAK-mediated IL15-induced Stat5 phosphorylation in BALB/c mouse CD11b-hi neutrophils by Phospho-Flow cytometry
[10] = Inhibition of JAK-mediated IL7-induced Stat5 phosphorylation in BALB/c mouse CD11b-hi neutrophils by Phospho-Flow cytometry
[11] = Inhibition of JAK-mediated IL6-induced Stat3 phosphorylation in BALB/c mouse CD11b-hi neutrophils by Phospho-Flow cytometry
[12] = Inhibition of JAK-mediated IL4-induced Stat5 phosphorylation in BALB/c mouse CD8+ T cells by Phospho-Flow cytometry; format: cell-based; conditions: T-cell
[13] = Inhibition of JAK-mediated IL6-induced Stat3 phosphorylation in BALB/c mouse B cells by Phospho-Flow cytometry; format: cell-based
[14] = Inhibition of JAK-mediated IL6-induced Stat1 phosphorylation in BALB/c mouse CD11b-hi neutrophils by Phospho-Flow cytometry
[15] = Inhibition of JAK-mediated IL7-induced Stat5 phosphorylation in BALB/c mouse CD11b-int macrophages by Phospho-Flow cytometry
[16] = Inhibition of JAK-mediated IL4-induced Stat6 phosphorylation in BALB/c mouse CD11b-int macrophages by Phospho-Flow cytometry
[17] = Inhibition of JAK-mediated IL6-induced Stat1 phosphorylation in BALB/c mouse CD11b-int macrophages by Phospho-Flow cytometry
[18] = Inhibition of JAK-mediated IL7-induced Stat5 phosphorylation in BALB/c mouse CD4+ T cells by Phospho-Flow cytometry; format: cell-based; conditions: T-cell
[19] = Inhibition of JAK-mediated IL4-induced Stat6 phosphorylation in BALB/c mouse CD8+ T cells by Phospho-Flow cytometry; format: cell-based; conditions: T-cell
[20] = Inhibition of JAK-mediated interferon-gamma-induced Stat1 phosphorylation in BALB/c mouse CD11b-int macrophages by Phospho-Flow cytometry
[21] = Inhibition of JAK-mediated IL4-induced Stat5 phosphorylation in BALB/c mouse CD11b-hi neutrophils by Phospho-Flow cytometry
[22] = Inhibition of JAK-mediated IL15-induced Stat5 phosphorylation in BALB/c mouse CD11b-int macrophages by Phospho-Flow cytometry
[23] = Inhibition of JAK-mediated IL15-induced Stat5 phosphorylation in BALB/c mouse CD8+ T cells by Phospho-Flow cytometry; format: cell-based; conditions: T-cell
[24] = Inhibition of JAK-mediated interferon-gamma-induced Stat1 phosphorylation in BALB/c mouse CD11b-hi neutrophils by Phospho-Flow cytometry
[25] = Inhibition of JAK-mediated IL6-induced Stat3 phosphorylation in BALB/c mouse CD4+ T cells by Phospho-Flow cytometry; format: cell-based; conditions: T-cell
[26] = Inhibition of JAK-mediated IL15-induced Stat5 phosphorylation in BALB/c mouse CD4+ T cells by Phospho-Flow cytometry; format: cell-based; conditions: T-cell
[27] = Inhibition of JAK-mediated IL7-induced Stat5 phosphorylation in BALB/c mouse CD8+ T cells by Phospho-Flow cytometry; format: cell-based; conditions: T-cell
[28] = Inhibition of JAK-mediated IL4-induced Stat5 phosphorylation in BALB/c mouse CD11b-int macrophages by Phospho-Flow cytometry
[29] = Inhibition of JAK-mediated IL6-induced Stat1 phosphorylation in BALB/c mouse CD8+ T cells by Phospho-Flow cytometry; format: cell-based; conditions: T-cell
[30] = Inhibition of JAK-mediated IL10-induced Stat3 phosphorylation in BALB/c mouse CD11b-int macrophages by Phospho-Flow cytometry
[31] = Inhibition of JAK-mediated IL4-induced Stat6 phosphorylation in BALB/c mouse CD4+ T cells by Phospho-Flow cytometry; format: cell-based; conditions: T-cell
[32] = Inhibition of JAK-mediated interferon-gamma-induced Stat1 phosphorylation in BALB/c mouse B cells by Phospho-Flow cytometry; format: cell-based
[33] = Inhibition of JAK-mediated IL7-induced Stat5 phosphorylation in BALB/c mouse B cells by Phospho-Flow cytometry; format: cell-based
[34] = Inhibition of JAK-mediated IL15-induced Stat5 phosphorylation in BALB/c mouse B cells by Phospho-Flow cytometry; format: cell-based
[35] = Inhibition of JAK-mediated IL10-induced Stat3 phosphorylation in BALB/c mouse CD11b-hi neutrophils by Phospho-Flow cytometry
[36] = Inhibition of JAK-mediated IL10-induced Stat3 phosphorylation in BALB/c mouse CD8+ T cells by Phospho-Flow cytometry; format: cell-based; conditions: T-cell
[37] = Inhibition of JAK-mediated interferon-gamma-induced Stat1 phosphorylation in BALB/c mouse CD4+ T cells by Phospho-Flow cytometry; format: cell-based; conditions: T-cell
[38] = Inhibition of JAK-mediated IL10-induced Stat3 phosphorylation in BALB/c mouse CD4+ T cells by Phospho-Flow cytometry; format: cell-based; conditions: T-cell
[39] = Inhibition of JAK-mediated IL6-induced Stat1 phosphorylation in BALB/c mouse CD4+ T cells by Phospho-Flow cytometry; format: cell-based; conditions: T-cell
[40] = Inhibition of JAK-mediated IL4-induced Stat5 phosphorylation in BALB/c mouse B cells by Phospho-Flow cytometry; format: cell-based

CC(C)(C)c1nc2c3ccc(F)cc3c3c(=O)[nH]ccc3c2[nH]1
> 20 µM: IC50 [3]
< 20 µM: IC50 [1]
active: Activity [2]

C=C1C(=O)O[C@@H]2C[C@@H](C)[C@@H]3C=CC(=O)[C@@]3(C)[C@@H](O)[C@H]12
25%: inhibition (MAP kinase p38) | inhibition [4] | inhibition [5]

C=C1C(=O)O[C@@H]2C[C@@]3(C)CCC[C@H](C)C3=C[C@H]12
25%: inhibition (MAP kinase p38) | inhibition [4] | inhibition [5]

CC(=O)O[C@@H]1CO[C@H]2O[C@H]3[C@@H](C(C=O)=C[C@H](O)[C@@H]4C5=C(C(C)C)CC[C@]5(C)CC[C@@]34C)[C@@]2(O)C1=O
active: inhibition [4]
> 65%: inhibition [5]
25%: inhibition (MAP kinase p38)

CC(=O)c1c(O)c(C)c(O)c(Cc2c(O)c3c(c(C(=O)/C=C/c4ccccc4)c2O)OC(C)(C)C=C3)c1O
> 65%: inhibition [5]
25%: inhibition (MAP kinase p38) | inhibition [4]

CC(C)=CC(=O)O[C@H]1[C@H]2[C@H](OC(=O)[C@H]2C)[C@H](O)[C@@H](C)[C@@H]2C=CC(=O)[C@]21C
> 65%: inhibition [5]
25%: inhibition (MAP kinase p38) | inhibition [4]

CC(C)c1oc(=O)cc2c1[C@@H](O)[C@H]1OC(=O)[C@@]3(C)[C@@H](O)[C@H]4O[C@H]4[C@@]2(C)[C@@H]13
inactive: inhibition [4] | inhibition [5]
> 65%: inhibition (MAP kinase p38)

CC1CC(C)(O)CC(C(O)CC2CC(=O)NC(=O)C2)C1=O (stereo not drawn)
25%: inhibition (MAP kinase p38) | inhibition [4] | inhibition [5]

CC1OC(CC(=O)O)CC2=C1C(=O)c1c(O)cccc1C2=O (stereo not drawn)
25%: inhibition (MAP kinase p38) | inhibition [4]
> 65%: inhibition [5]

CC[C@H]1CN2CCc3cc(OC)c(OC)cc3[C@@H]2C[C@@H]1C[C@H]1NCCc2c1[nH]c1ccc(O)cc21
> 65%: inhibition [5]
25%: inhibition (MAP kinase p38) | inhibition [4]

CO[C@@H]1[C@@H](OC(=O)c2ccc(C)[nH]2)[C@@H](O)[C@@H](Oc2ccc3c(O)c(NC(=O)c4c[nH]c(C(=O)Nc5c(O)c6ccc(O[C@H]7OC(C)(C)[C@H](OC)[C@@H](OC(=O)c8ccc(C)[nH]8)[C@H]7O)c(C)c6oc5=O)c4C)c(=O)oc3c2C)OC1(C)C
inactive: inhibition (MAP kinase p38) | inhibition [4] | inhibition [5]

C[C@H]1CC[C@@H]2[C@@H](C)[C@H]3[C@H](C[C@H]4[C@@H]5CC=C6C[C@@H](O[C@@H]7O[C@H](CO)[C@H](O)[C@H](O[C@@H]8O[C@H](CO)[C@@H](O)[C@H](O)[C@H]8O)[C@H]7O[C@H]7O[C@@H](C)[C@H](O)[C@@H](O)[C@H]7O)CC[C@]6(C)[C@H]5CC[C@]34C)N2C1
25%: inhibition (MAP kinase p38) | inhibition [4]
> 65%: inhibition [5]

C[S+]([O-])c1ccc(-c2nc(-c3ccc(F)cc3)c(-c3ccncc3)[nH]2)cc1 (stereo not drawn)
active: Activity [2]

O=C1C=C2C(=CCOC2O)O1 (stereo not drawn)
25%: inhibition (MAP kinase p38) | inhibition [4]
> 65%: inhibition [5]

C/C=C/C1=C(Cl)C(=O)[C@H](Cl)[C@]1(O)C(=O)OC [CRYTOSPORIOPSIN]
< 20 µM: IC50 [6] | IC50 [7] | IC50 [8] | IC50 [9] | IC50 [10] | IC50 [11] | IC50 [12] | IC50 [13] | IC50 [14] | IC50 [15] | IC50 [16] | IC50 [17] | IC50 [1] | IC50 [18] | IC50 [19] | IC50 [20] | IC50 [21] | IC50 [22] | IC50 [23] | IC50 [24] | IC50 [25] | IC50 [26] | IC50 [27] | IC50 [28] | IC50 [29] | IC50 [30] | IC50 [31] | IC50 [32] | IC50 [33] | IC50 [34] | IC50 [35] | IC50 [3] | IC50 [36]
> 65%: inhibition [5]
active: inhibition [4]
25%: inhibition (MAP kinase p38)

O=Nc1c(-c2c(O)[nH]c3ccccc23)[nH]c2ccccc12 [INDIRUBIN-3-MONOXIME]
< 20 µM: IC50 [6] | IC50 [7] | IC50 [8] | IC50 [9] | IC50 [10] | IC50 [11] | IC50 [12] | IC50 [13] | IC50 [14] | IC50 [15] | IC50 [16] | IC50 [17] | IC50 [1] | IC50 [18] | IC50 [19] | IC50 [20] | IC50 [21] | IC50 [22] | IC50 [37] | IC50 [38] | IC50 [23] | IC50 [24] | IC50 [25] | IC50 [26] | IC50 [27] | IC50 [28] | IC50 [29] | IC50 [30] | IC50 [31] | IC50 [39] | IC50 [32] | IC50 [33] | IC50 [34] | IC50 [35] | IC50 [3] | IC50 [36] | IC50 [40]

From ChEMBL document CHEMBL1212697, “High-content single-cell drug screening with phosphospecific flow cytometry” (Nat Chem Biol, 2008)
